How the values were obtained:
CDK2/Cyclin E1 = CDK2/Cyclin E1 (Homo sapiens, UniProt P24941); experiment: CDK2/Cyclin E1 Biochemical Assay (TR-FRET), 1 mM ATP; conditions: 0.15 μM Rb (Ser780)-biotin substrate, pH7.0, 60 min preincubation, 90 min reaction, room temperature
Procedure: (§1) CDK2/Cyclin E1 and CDK1/Cyclin B1 Biochemical Assays
(§2) Compounds disclosed herein were tested for inhibition of CDK2/Cyclin E1 or CDK1/Cyclin B1 kinase in an assay based on the time-resolved fluorescence-resonance energy transfer (TR-FRET) methodology. The assay was carried out in 384-well low volume black plates in a reaction mixture containing CDK2/Cyclin E1 or CDK1/Cyclin B1, 1 mM ATP for CDK2/Cyclin E1 and CDK1/Cyclin B1, 0.15 μM Rb (Ser780)-biotin substrate and 0-10 μM compound in buffer containing 50 mM HEPES pH7.0, 0.02% NaN3, 0.01% BSA, 0.1 mM Orthovanadate, 50 mM MgCl2, 1 mM DTT and 0.005% Tween-20. The kinase was incubated with compound for 60 minutes at room temperature and the reaction was initiated by the addition of ATP and Rb (Ser780)-biotin substrate. After reaction at room temperature for 90 minutes, an equal volume of stop/detection solution was added according to the manufacture's instruction (Cisbio Bioassays). The stop/detection solution contained Streptavidin-XL665 and Anti-pRb (Ser780) mAb-Eu Cryptate in Detection buffer (Cisbio Bioassays). Plates were incubated at room temperature for 60 minutes, and the TR-FRET signals (ex337 nm, em665 nm/620 nm) were recorded on a PHERAstar FSX plate reader (BMG Labtech). The inhibition percentage of CDK2/Cyclin E1 or CDK1/Cyclin B1 kinase activity in presence of increasing concentrations of compounds was calculated based on the ratio of fluorescence at 665 nm to that at 620 nm. The IC50 for each compound was derived from fitting the data to the four-parameter logistic equation by Dotmatics.

CDK1/Cyclin B1 = CDK1/Cyclin B1 (Homo sapiens, UniProt P06493); experiment: CDK1/Cyclin B1 Biochemical Assay (TR-FRET), 1 mM ATP; conditions: 0.15 μM Rb (Ser780)-biotin substrate, pH7.0, 60 min preincubation, 90 min reaction, room temperature
Procedure: as §1, §2

Sequence of CDK1/Cyclin B1 (P06493 whole entry): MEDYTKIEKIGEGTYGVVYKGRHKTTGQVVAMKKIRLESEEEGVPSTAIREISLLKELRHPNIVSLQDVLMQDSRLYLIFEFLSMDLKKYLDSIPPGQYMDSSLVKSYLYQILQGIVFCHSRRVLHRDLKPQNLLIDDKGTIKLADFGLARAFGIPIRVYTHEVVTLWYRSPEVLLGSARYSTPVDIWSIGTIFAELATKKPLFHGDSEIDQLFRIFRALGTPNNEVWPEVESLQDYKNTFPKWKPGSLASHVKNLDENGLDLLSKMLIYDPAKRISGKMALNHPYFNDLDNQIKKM
Sequence of CDK1/Cyclin B1 (P14635 whole entry partner): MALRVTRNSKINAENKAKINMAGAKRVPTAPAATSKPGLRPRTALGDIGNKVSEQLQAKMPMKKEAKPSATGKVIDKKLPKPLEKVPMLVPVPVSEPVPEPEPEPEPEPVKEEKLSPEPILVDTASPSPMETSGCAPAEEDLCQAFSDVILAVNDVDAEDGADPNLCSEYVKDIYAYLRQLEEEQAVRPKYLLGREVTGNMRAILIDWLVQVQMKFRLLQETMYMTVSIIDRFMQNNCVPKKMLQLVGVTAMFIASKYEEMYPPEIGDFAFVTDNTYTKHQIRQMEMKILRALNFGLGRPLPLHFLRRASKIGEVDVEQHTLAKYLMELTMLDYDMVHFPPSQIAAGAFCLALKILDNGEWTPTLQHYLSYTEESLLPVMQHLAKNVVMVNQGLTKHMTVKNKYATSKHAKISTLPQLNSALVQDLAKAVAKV

| SMILES | IC50 (CDK2/Cyclin E1) [µM] | IC50 (CDK1/Cyclin B1) [µM] |
| --- | --- | --- |
| O=C(NC12CCC(O)(CC1)CC2)O[C@H]1CC[C@@H](c2cc(Nc3cc4c(cc3F)S(=O)(=O)NC4)n[nH]2)C1 (relative stereo) [Example 457, cis-3-(3-((6-fluoro-1,1-dioxido-2,3-dihydrobenzo[d]isothiazol-5-yl)amino)-1H-pyrazol-5-yl)cyclopentyl(4-hydroxybicyclo[2.2.2]octan-1-yl)carbamate] | 0.0018 | 1.11 |
| CC(C)NC(=O)O[C@H]1CC[C@@H](c2cc(Nc3ccc4c(c3F)N(C)S(=O)(=O)N4)n[nH]2)C1 (relative stereo) [Example 466, cis-3-(3-((4-fluoro-3-methyl-2,2-dioxido-1,3-dihydrobenzo[c][1,2,5]thiadiazol-5-yl)amino)-1H-pyrazol-5-yl)cyclopentyl isopropylcarbamate] | 0.063 | > 10 |
| [2H]C([2H])([2H])N1c2ccc(Nc3cc([C@@H]4CC[C@H](OC(=O)NC56CC(C5)C6)C4)[nH]n3)cc2CS1(=O)=O (relative stereo) [Example 455, cis-3-(3-((1-(methyl-d3)-2,2-dioxido-1,3-dihydrobenzo[c]isothiazol-5-yl)amino)-1H-pyrazol-5-yl)cyclopentyl bicyclo[1.1.1]pentan-1-ylcarbamate] | 0.0009 | 0.097 |
| CC1(C)CCCN1C(=O)O[C@H]1CC[C@@H](c2cc(Nc3ccc4c(c3F)CS(=O)(=O)N4)n[nH]2)C1 (relative stereo) [Example 436, cis-3-(3-((4-fluoro-2,2-dioxido-1,3-dihydrobenzo[c]isothiazol-5-yl)amino)-1H-pyrazol-5-yl)cyclopentyl 2,2-dimethylpyrrolidine-1-carboxylate] | 0.0015 | 0.122 |
| O=C(NC1CCOC1)O[C@H]1CC[C@@H](c2cc(Nc3ccc4c(c3)CS(=O)(=O)N4)n[nH]2)C1 (relative stereo) [Example 428, cis-3-(3-((2,2-dioxido-1,3-dihydrobenzo[c]isothiazol-5-yl)amino)-1H-pyrazol-5-yl)cyclopentyl(tetrahydrofuran-3-yl)carbamate] | 0.021 | 4.85 |
| CN1c2ccc(Nc3cc([C@@H]4CC[C@H](OC(=O)NC(C)(C)C)C4)[nH]n3)c(F)c2CS1(=O)=O (relative stereo) [Example 453, cis-3-(3-((4-fluoro-1-methyl-2,2-dioxido-1,3-dihydrobenzo[c]isothiazol-5-yl)amino)-1H-pyrazol-5-yl)cyclopentyl tert-butylcarbamate] | 0.0009 | 0.446 |
| CC1(NC(=O)O[C@H]2CC[C@@H](c3cc(Nc4cc5c(cc4F)S(=O)(=O)NC5)n[nH]3)C2)CCCC1 (relative stereo) [Example 446, cis-3-(3-((6-fluoro-1,1-dioxido-2,3-dihydrobenzo[d]isothiazol-5-yl)amino)-1H-pyrazol-5-yl)cyclopentyl(1-methylcyclopentyl)carbamate] | 0.0017 | 1.4 |
| CC(C)(CO)NC(=O)O[C@H]1CC[C@@H](c2cc(Nc3cc4c(cc3F)S(=O)(=O)NC4)n[nH]2)C1 (relative stereo) [Example 444, cis-3-(3-((6-fluoro-1,1-dioxido-2,3-dihydrobenzo[d]isothiazol-5-yl)amino)-1H-pyrazol-5-yl)cyclopentyl(1-hydroxy-2-methylpropan-2-yl)carbamate] | 0.016 | 7.87 |
| CN1c2ccc(Nc3cc([C@@H]4CC[C@H](OC(=O)NC5CCOC5)C4)[nH]n3)cc2CS1(=O)=O (relative stereo) [Example 424, cis-3-(3-((1-methyl-2,2-dioxido-1,3-dihydrobenzo[c]isothiazol-5-yl)amino)-1H-pyrazol-5-yl)cyclopentyl(tetrahydrofuran-3-yl)carbamate] | 0.084 | > 10 |
| CN1c2ccc(Nc3cc([C@@H]4CC[C@H](OC(=O)NCC(C)(C)O)C4)[nH]n3)c(F)c2CS1(=O)=O (single isomer, unassigned) [Example 330b, cis-3-(3-((4-fluoro-1-methyl-2,2-dioxido-1,3-dihydrobenzo[c]isothiazol-5-yl)amino)-1H-pyrazol-5-yl)cyclopentyl(2-hydroxy-2-methylpropyl)carbamate] | 0.024 | 4.09 |
| [2H]C([2H])([2H])N1c2ccc(Nc3cc([C@@H]4CC[C@H](OC(=O)NC(C)(C)C)C4)[nH]n3)cc2CS1(=O)=O (relative stereo) [Example 454, cis-3-(3-((1-(methyl-d3)-2,2-dioxido-1,3-dihydrobenzo[c]isothiazol-5-yl)amino)-1H-pyrazol-5-yl)cyclopentyl tert-butylcarbamate] | 0.0005 | 0.114 |
| O=C(NCCC(F)(F)F)O[C@H]1CC[C@@H](c2cc(Nc3ccc4c(c3F)CS(=O)(=O)N4)n[nH]2)C1 (relative stereo) [Example 438, cis-3-(3-((4-fluoro-2,2-dioxido-1,3-dihydrobenzo[c]isothiazol-5-yl)amino)-1H-pyrazol-5-yl)cyclopentyl(3,3,3-trifluoropropyl)carbamate] | 0.0047 | 0.583 |
| CCCNC(=O)O[C@H]1CC[C@@H](c2cc(Nc3ccc4c(c3F)CCS(=O)(=O)N4)n[nH]2)C1 (relative stereo) [Example 460, cis-3-(3-((5-fluoro-2,2-dioxido-3,4-dihydro-1H-benzo[c][1,2]thiazin-6-yl)amino)-1H-pyrazol-5-yl)cyclopentyl propylcarbamate] | 0.0031 | 0.593 |
| CN1c2ccc(Nc3cc([C@@H]4CC[C@H](OC(=O)NCC(C)(C)O)C4)[nH]n3)c(F)c2CS1(=O)=O (single isomer, unassigned) [Example 330a, cis-3-(3-((4-fluoro-1-methyl-2,2-dioxido-1,3-dihydrobenzo[c]isothiazol-5-yl)amino)-1H-pyrazol-5-yl)cyclopentyl(2-hydroxy-2-methylpropyl)carbamate] | 0.084 | > 10 |
| O=C(NC1CC1)O[C@H]1CC[C@@H](c2cc(Nc3ccc4c(c3F)CS(=O)(=O)N4)n[nH]2)C1 (relative stereo) [Example 459, cis-3-(3-((4-fluoro-2,2-dioxido-1,3-dihydrobenzo[c]isothiazol-5-yl)amino)-1H-pyrazol-5-yl)cyclopentyl cyclopropylcarbamate] | 0.006 | 1.97 |
| CC(C)(CO)NC(=O)O[C@H]1CC[C@@H](c2cc(Nc3ccc4c(c3F)CN(C3CC3)S4(=O)=O)n[nH]2)C1 (single isomer, unassigned) [Example 359a, cis-3-(3-((2-cyclopropyl-4-fluoro-1,1-dioxido-2,3-dihydrobenzo[d]isothiazol-5-yl)amino)-1H-pyrazol-5-yl)cyclopentyl(1-hydroxy-2-methylpropan-2-yl)carbamate] | 0.014 | 8.02 |
| CC[C@H](C)NC(=O)O[C@H]1CC[C@@H](c2cc(Nc3ccc4c(c3F)CS(=O)(=O)N4CC(C)(C)O)n[nH]2)C1 (relative stereo) [Example 434, cis-3-(3-((4-fluoro-1-(2-hydroxy-2-methylpropyl)-2,2-dioxido-1,3-dihydrobenzo[c]isothiazol-5-yl)amino)-1H-pyrazol-5-yl)cyclopentyl((S)-sec-butyl)carbamate] | 0.0017 | 0.747 |
| CN(C(=O)O[C@H]1CC[C@@H](c2cc(Nc3ccc4c(c3F)CS(=O)(=O)N4)n[nH]2)C1)C1CCOC1 (relative stereo) [Example 441, cis-3-(3-((4-fluoro-2,2-dioxido-1,3-dihydrobenzo[c]isothiazol-5-yl)amino)-1H-pyrazol-5-yl)cyclopentyl methyl(tetrahydrofuran-3-yl)carbamate] | 0.047 | 5.06 |
| CC1(NC(=O)O[C@H]2CC[C@@H](c3cc(Nc4cc5c(cc4F)S(=O)(=O)NC5)n[nH]3)C2)CCC1 (relative stereo) [Example 445, cis-3-(3-((6-fluoro-1,1-dioxido-2,3-dihydrobenzo[d]isothiazol-5-yl)amino)-1H-pyrazol-5-yl)cyclopentyl(1-methylcyclobutyl)carbamate] | 0.0018 | 1.05 |
| O=C(NC1CCOC1)O[C@H]1CC[C@@H](c2cc(Nc3ccc4c(c3F)CS(=O)(=O)N4C3CC3)n[nH]2)C1 (relative stereo) [Example 429, cis-3-(3-((1-cyclopropyl-4-fluoro-2,2-dioxido-1,3-dihydrobenzo[c]isothiazol-5-yl)amino)-1H-pyrazol-5-yl)cyclopentyl(tetrahydrofuran-3-yl)carbamate] | 0.133 | > 10 |
| CC(C)NC(=O)O[C@H]1CC[C@@H](c2cc(Nc3ccc4c(c3F)CCS(=O)(=O)N4)n[nH]2)C1 (single isomer, unassigned) [Example 430b] | 0.0022 | 0.784 |

Reference: US20260297080A1, “BICYCLIC COMPOUNDS AS CDK INHIBITORS” (BeOne Medicines I GmbH, priority 2022, published 2026)
